Assay: wn = mass fraction of the nth substance listed
Conditions: 101 kPa, Liquid, Vibrating tube method

OCCNCCO [diethanolamine] + O
Conditions	mass density [kg/m3]
283.14 K, w1 = 1	1103.88
283.15 K, w1 = 0.1007	1011.98
283.15 K, w1 = 0.2002	1024.98
283.15 K, w1 = 0.2997	1038.45
283.15 K, w1 = 0.3999	1052.36
283.15 K, w1 = 0.5003	1065.24
283.15 K, w1 = 0.6024	1077.85
283.15 K, w1 = 0.6999	1088.2
283.15 K, w1 = 0.8004	1096.55
283.15 K, w1 = 0.8534	1099.73
283.15 K, w1 = 0.8995	1101.58
283.16 K, w1 = 0.9316	1102.57
283.16 K, w1 = 0.9591	1103.24
293.14 K, w1 = 0.8995	1095.4
293.15 K, w1 = 0.1007	1010.01
293.15 K, w1 = 0.2002	1022.35
293.15 K, w1 = 0.2997	1035.07
293.15 K, w1 = 0.3999	1048.19
293.15 K, w1 = 0.5003	1060.32
293.15 K, w1 = 0.6024	1072.33
293.15 K, w1 = 0.6999	1082.23
293.15 K, w1 = 0.8004	1090.42
293.15 K, w1 = 0.8534	1093.59
293.15 K, w1 = 0.9316	1096.37
293.15 K, w1 = 0.9591	1096.98
293.15 K, w1 = 1	1097.51
303.14 K, w1 = 0.6024	1066.59
303.14 K, w1 = 0.6999	1076.15
303.14 K, w1 = 0.8995	1089.06
303.14 K, w1 = 1	1091.06
303.15 K, w1 = 0.2002	1018.95
303.15 K, w1 = 0.2997	1031.08
303.15 K, w1 = 0.3999	1043.56
303.15 K, w1 = 0.8004	1084.12
303.15 K, w1 = 0.8534	1087.26
303.15 K, w1 = 0.9316	1090.01
303.15 K, w1 = 0.9591	1090.59
303.16 K, w1 = 0.1007	1007.1
303.16 K, w1 = 0.5003	1055.09
313.14 K, w1 = 0.6024	1060.6
313.14 K, w1 = 0.8004	1077.72
313.14 K, w1 = 1	1084.49
313.15 K, w1 = 0.1007	1003.4
313.15 K, w1 = 0.2002	1014.87
313.15 K, w1 = 0.3999	1038.5
313.15 K, w1 = 0.6999	1069.91
313.15 K, w1 = 0.8534	1080.78
313.15 K, w1 = 0.8995	1082.55
313.15 K, w1 = 0.9316	1083.49
313.15 K, w1 = 0.9591	1084.06
313.16 K, w1 = 0.2997	1026.54
313.16 K, w1 = 0.5003	1049.55
323.14 K, w1 = 0.5003	1043.69
323.14 K, w1 = 0.6024	1054.36
323.14 K, w1 = 1	1077.78
323.15 K, w1 = 0.1007	999.014
323.15 K, w1 = 0.2002	1010.18
323.15 K, w1 = 0.6999	1063.49
323.15 K, w1 = 0.8004	1071.18
323.15 K, w1 = 0.8534	1074.21
323.15 K, w1 = 0.8995	1075.95
323.15 K, w1 = 0.9316	1076.86
323.15 K, w1 = 0.9591	1077.4
323.16 K, w1 = 0.2997	1021.47
323.16 K, w1 = 0.3999	1033.03
333.14 K, w1 = 0.8995	1069.24
333.14 K, w1 = 1	1071
333.15 K, w1 = 0.1007	994.007
333.15 K, w1 = 0.2002	1004.93
333.15 K, w1 = 0.2997	1015.93
333.15 K, w1 = 0.3999	1027.17
333.15 K, w1 = 0.5003	1037.44
333.15 K, w1 = 0.6024	1047.86
333.15 K, w1 = 0.6999	1056.8
333.15 K, w1 = 0.8534	1067.5
333.15 K, w1 = 0.9316	1070.14
333.15 K, w1 = 0.9591	1070.66
333.16 K, w1 = 0.8004	1064.48
343.14 K, w1 = 0.2997	1009.93
343.14 K, w1 = 0.6024	1041.1
343.14 K, w1 = 0.6999	1049.92
343.14 K, w1 = 0.8995	1062.39
343.14 K, w1 = 1	1064.14
343.15 K, w1 = 0.1007	988.445
343.15 K, w1 = 0.2002	999.169
343.15 K, w1 = 0.3999	1020.9
343.15 K, w1 = 0.5003	1030.89
343.15 K, w1 = 0.8534	1060.63
343.15 K, w1 = 0.9316	1063.3
343.15 K, w1 = 0.9591	1063.82
343.16 K, w1 = 0.8004	1057.6
353.14 K, w1 = 0.2997	1003.5
353.14 K, w1 = 0.5003	1024.01
353.14 K, w1 = 0.6999	1042.78
353.14 K, w1 = 0.8995	1055.38
353.14 K, w1 = 0.9316	1056.33
353.14 K, w1 = 0.9591	1056.87
353.15 K, w1 = 0.1007	982.774
353.15 K, w1 = 0.2002	992.938
353.15 K, w1 = 0.3999	1014.25
353.15 K, w1 = 0.6024	1034.05
353.15 K, w1 = 0.8004	1050.51
353.15 K, w1 = 0.8534	1053.58
353.15 K, w1 = 1	1056.83

— the NIST ThermoML archive (doi:10.1016/j.tca.2012.01.007)
